Measured values as given in PMC6199309, “A therapeutic approach to pantothenate kinase associated neurodegeneration” (Nature Communications, 2018).

Key:
[1] = biological target: T1, BIKE (Homo sapiens, UniProt Q9NSY1); assay: KINOMEscan; assay type: binding; details: read-out: %Ctrl @ 10000nM
T1 construct: purchased DiscoverX KINOMEscan

[2] = biological target: T2, PIK3CA(I800L) (Homo sapiens, UniProt P42336, I800L); assay: KINOMEscan; assay type: binding; details: read-out: %Ctrl @ 10000nM
T2 construct: purchased DiscoverX KINOMEscan

[3] = biological target: T3, PIK3CA(C420R) (Homo sapiens, UniProt P42336, C420R); assay: KINOMEscan; assay type: binding; details: read-out: %Ctrl @ 10000nM
T3 construct: purchased DiscoverX KINOMEscan

[4] = biological target: T4, VRK2 (Homo sapiens, UniProt Q86Y07); assay: KINOMEscan; assay type: binding; details: read-out: %Ctrl @ 10000nM
T4 construct: DNA label for qPCR (T7 phage fusion or DNA tag); purchased DiscoverX scanMAX; host or cells: E. coli BL21-derived (T7 phage) or HEK-293

[5] = biological target: T5, PRKD1 (Homo sapiens, UniProt Q15139); assay: KINOMEscan; assay type: binding; details: read-out: %Ctrl @ 10000nM
T5 construct: purchased DiscoverX KINOMEscan

[6] = biological target: T6, ERK3 (Homo sapiens, UniProt Q16659); assay: KINOMEscan; assay type: binding; details: read-out: %Ctrl @ 10000nM
T6 construct: purchased DiscoverX KINOMEscan
T6 sequence (Q16659 whole entry): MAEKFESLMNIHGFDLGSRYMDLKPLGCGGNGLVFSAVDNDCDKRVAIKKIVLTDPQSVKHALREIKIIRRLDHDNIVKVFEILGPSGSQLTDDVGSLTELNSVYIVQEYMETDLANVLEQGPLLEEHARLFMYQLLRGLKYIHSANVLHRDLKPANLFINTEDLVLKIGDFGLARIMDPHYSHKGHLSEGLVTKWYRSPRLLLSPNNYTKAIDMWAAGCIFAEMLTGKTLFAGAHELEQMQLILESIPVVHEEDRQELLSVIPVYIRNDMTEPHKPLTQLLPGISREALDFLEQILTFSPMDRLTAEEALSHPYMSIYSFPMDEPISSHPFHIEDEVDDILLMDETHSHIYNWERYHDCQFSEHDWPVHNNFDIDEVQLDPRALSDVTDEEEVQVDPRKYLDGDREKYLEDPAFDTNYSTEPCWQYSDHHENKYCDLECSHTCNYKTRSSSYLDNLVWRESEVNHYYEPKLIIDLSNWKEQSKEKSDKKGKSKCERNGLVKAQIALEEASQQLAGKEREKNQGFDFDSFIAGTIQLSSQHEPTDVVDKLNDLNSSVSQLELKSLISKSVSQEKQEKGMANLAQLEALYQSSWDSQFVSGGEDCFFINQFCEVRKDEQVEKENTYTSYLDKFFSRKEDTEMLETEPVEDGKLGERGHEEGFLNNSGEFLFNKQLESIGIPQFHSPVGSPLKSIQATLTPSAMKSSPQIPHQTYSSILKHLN

[7] = biological target: T7, RET (Homo sapiens, UniProt P07949); assay: KINOMEscan; assay type: binding; details: read-out: %Ctrl @ 10000nM
T7 construct: purchased DiscoverX KINOMEscan

[8] = biological target: T8, PLK3 (Homo sapiens, UniProt Q9H4B4); assay: KINOMEscan; assay type: binding; details: read-out: %Ctrl @ 10000nM
T8 construct: purchased DiscoverX KINOMEscan

[9] = biological target: T9, PIK3CG (Homo sapiens, UniProt P48736); assay: KINOMEscan; assay type: binding; details: read-out: %Ctrl @ 10000nM
T9 construct: purchased DiscoverX KINOMEscan

[10] = biological target: T10, ITK (Homo sapiens, UniProt Q08881); assay: KINOMEscan; assay type: binding; details: read-out: %Ctrl @ 10000nM
T10 construct: purchased DiscoverX KINOMEscan
T10 sequence (Q08881 whole entry): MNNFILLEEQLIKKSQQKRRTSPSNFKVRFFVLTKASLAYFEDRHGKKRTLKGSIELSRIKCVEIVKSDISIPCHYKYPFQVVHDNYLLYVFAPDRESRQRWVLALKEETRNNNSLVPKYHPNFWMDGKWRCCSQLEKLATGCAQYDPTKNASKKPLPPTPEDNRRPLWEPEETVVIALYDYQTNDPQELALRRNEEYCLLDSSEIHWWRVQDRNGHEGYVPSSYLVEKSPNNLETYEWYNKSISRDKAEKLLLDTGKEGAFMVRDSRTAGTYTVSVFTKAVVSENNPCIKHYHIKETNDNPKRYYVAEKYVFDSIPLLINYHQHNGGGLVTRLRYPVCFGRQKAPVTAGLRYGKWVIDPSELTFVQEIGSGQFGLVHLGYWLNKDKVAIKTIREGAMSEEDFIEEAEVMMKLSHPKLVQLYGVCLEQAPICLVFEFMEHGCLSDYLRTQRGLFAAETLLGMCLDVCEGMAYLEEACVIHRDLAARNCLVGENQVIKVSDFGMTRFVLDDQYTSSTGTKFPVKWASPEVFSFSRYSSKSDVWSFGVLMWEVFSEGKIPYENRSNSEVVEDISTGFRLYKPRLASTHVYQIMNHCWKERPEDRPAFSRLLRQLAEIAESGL

[11] = Plasma stability; assay type: in vitro ADME; details: rat, read-out: Plasma Stability T1/2 (converted)
[12] = biological target: T11, ACVR1 (Homo sapiens, UniProt Q04771); assay: KINOMEscan; assay type: binding; details: read-out: %Ctrl @ 10000nM
T11 construct: purchased DiscoverX KINOMEscan

[13] = biological target: T12, NEK6 (Homo sapiens, UniProt Q9HC98); assay: KINOMEscan; assay type: binding; details: read-out: %Ctrl @ 10000nM
T12 construct: purchased DiscoverX KINOMEscan
T12 sequence (Q9HC98 whole entry): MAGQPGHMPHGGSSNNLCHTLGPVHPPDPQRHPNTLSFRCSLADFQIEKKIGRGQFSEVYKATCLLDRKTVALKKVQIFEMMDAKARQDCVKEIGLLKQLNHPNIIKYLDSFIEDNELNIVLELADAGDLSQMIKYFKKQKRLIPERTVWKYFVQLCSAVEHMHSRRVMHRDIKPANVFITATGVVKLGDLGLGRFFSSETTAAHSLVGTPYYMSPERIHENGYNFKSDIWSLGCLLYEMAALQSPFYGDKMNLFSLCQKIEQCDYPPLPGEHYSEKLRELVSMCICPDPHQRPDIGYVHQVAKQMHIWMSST

[14] = biological target: T13, DAPK1 (Homo sapiens, UniProt P53355); assay: KINOMEscan; assay type: binding; details: read-out: %Ctrl @ 10000nM
T13 construct: purchased DiscoverX KINOMEscan

[15] = biological target: T14, NEK2 (Homo sapiens, UniProt P51955); assay: KINOMEscan; assay type: binding; details: read-out: %Ctrl @ 10000nM
T14 construct: purchased DiscoverX KINOMEscan
T14 sequence (P51955 whole entry): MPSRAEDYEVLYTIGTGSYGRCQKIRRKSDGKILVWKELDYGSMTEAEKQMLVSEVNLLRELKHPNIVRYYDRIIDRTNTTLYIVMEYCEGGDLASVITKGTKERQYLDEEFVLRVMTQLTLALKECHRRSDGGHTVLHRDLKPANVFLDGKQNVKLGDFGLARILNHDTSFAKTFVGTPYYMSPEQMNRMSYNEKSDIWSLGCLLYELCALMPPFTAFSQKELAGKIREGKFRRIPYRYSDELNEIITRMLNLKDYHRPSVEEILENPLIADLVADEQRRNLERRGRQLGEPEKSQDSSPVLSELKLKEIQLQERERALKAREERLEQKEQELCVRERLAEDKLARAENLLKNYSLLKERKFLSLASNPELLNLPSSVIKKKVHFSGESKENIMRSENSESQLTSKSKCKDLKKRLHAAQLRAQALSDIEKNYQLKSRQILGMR

[16] = biological target: T15, PIM3 (Homo sapiens, UniProt Q86V86); assay: KINOMEscan; assay type: binding; details: read-out: %Ctrl @ 10000nM
T15 construct: purchased DiscoverX KINOMEscan

[17] = biological target: T16, EPHA7 (Homo sapiens, UniProt Q15375); assay: KINOMEscan; assay type: binding; details: read-out: %Ctrl @ 10000nM
T16 construct: purchased DiscoverX KINOMEscan

[18] = biological target: T17, PIK3CB (Homo sapiens, UniProt P42338); assay: KINOMEscan; assay type: binding; details: read-out: %Ctrl @ 10000nM
T17 construct: purchased DiscoverX KINOMEscan
T17 sequence (P42338 whole entry): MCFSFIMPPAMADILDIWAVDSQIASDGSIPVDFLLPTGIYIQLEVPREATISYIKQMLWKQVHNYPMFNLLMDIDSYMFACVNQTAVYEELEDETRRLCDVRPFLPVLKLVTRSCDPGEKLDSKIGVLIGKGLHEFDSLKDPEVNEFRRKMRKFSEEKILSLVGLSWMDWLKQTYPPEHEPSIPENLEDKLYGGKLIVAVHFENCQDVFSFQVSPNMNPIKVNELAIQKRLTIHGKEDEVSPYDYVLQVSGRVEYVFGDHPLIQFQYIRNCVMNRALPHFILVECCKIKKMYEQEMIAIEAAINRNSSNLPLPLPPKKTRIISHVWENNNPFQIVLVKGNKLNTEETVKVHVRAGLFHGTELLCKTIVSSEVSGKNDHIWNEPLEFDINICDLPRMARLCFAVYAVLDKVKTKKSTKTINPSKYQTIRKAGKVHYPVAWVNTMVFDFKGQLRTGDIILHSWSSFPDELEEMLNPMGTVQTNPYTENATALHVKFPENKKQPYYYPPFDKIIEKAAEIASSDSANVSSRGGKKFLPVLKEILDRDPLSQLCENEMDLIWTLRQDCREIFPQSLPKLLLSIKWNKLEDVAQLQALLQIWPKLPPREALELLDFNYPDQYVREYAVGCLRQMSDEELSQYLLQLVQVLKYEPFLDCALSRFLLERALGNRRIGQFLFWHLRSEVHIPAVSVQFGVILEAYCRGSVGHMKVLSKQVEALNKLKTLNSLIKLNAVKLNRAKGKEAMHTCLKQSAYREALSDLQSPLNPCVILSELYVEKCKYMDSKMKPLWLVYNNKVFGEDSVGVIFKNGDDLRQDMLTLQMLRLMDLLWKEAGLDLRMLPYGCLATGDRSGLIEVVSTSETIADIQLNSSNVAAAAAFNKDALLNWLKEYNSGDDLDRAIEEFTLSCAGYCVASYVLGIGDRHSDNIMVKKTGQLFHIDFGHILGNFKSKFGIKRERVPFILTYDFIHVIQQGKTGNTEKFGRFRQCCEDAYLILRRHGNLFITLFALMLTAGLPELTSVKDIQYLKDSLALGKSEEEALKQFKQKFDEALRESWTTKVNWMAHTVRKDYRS

[19] = biological target: T18, RIPK2 (Homo sapiens, UniProt O43353); assay: KINOMEscan; assay type: binding; details: read-out: %Ctrl @ 10000nM
T18 construct: purchased DiscoverX KINOMEscan

[20] = tested on: 72 cellular proteins known to cause off-target effects; assay: SAFETYscan off-target panel; details: 1 and 10 μM
[21] = biological target: T19, CSNK1A1L (Homo sapiens, UniProt Q8N752); assay: KINOMEscan; assay type: binding; details: read-out: %Ctrl @ 10000nM
T19 construct: purchased DiscoverX KINOMEscan

[22] = biological target: T20, WNK2 (Homo sapiens, UniProt Q9Y3S1); assay: KINOMEscan; assay type: binding; details: read-out: %Ctrl @ 10000nM
T20 construct: DNA label for qPCR (T7 phage fusion or DNA tag); purchased DiscoverX scanMAX; host or cells: E. coli BL21-derived (T7 phage) or HEK-293

[23] = biological target: T21, CDKL3 (Homo sapiens, UniProt Q8IVW4); assay: KINOMEscan; assay type: binding; details: read-out: %Ctrl @ 10000nM
T21 construct: purchased DiscoverX KINOMEscan
T21 sequence (Q8IVW4 whole entry): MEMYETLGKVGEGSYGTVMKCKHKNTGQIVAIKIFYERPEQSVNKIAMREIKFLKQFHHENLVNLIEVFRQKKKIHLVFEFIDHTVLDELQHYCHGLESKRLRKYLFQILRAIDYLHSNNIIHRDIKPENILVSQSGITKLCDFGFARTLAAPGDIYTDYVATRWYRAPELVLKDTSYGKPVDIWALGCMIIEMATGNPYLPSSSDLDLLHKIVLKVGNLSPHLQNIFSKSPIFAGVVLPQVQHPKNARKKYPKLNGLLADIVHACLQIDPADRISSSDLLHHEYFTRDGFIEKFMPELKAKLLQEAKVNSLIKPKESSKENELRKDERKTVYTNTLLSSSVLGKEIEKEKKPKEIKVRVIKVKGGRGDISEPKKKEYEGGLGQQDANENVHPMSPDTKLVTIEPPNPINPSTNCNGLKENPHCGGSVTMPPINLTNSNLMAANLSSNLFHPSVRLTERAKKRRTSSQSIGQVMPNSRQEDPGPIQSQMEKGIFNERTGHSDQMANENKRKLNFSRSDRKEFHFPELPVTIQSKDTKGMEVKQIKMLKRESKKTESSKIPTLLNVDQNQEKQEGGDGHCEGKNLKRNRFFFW

[24] = biological target: T22, CSF1R (Homo sapiens, UniProt P07333); assay: KINOMEscan; assay type: binding; details: read-out: %Ctrl @ 10000nM
T22 construct: purchased DiscoverX KINOMEscan

[25] = biological target: T23, CAMKK2 (Homo sapiens, UniProt Q96RR4); assay: KINOMEscan; assay type: binding; details: read-out: %Ctrl @ 10000nM
T23 construct: purchased DiscoverX KINOMEscan

[26] = biological target: T24, ERN1 (Homo sapiens, UniProt O75460); assay: KINOMEscan; assay type: binding; details: read-out: %Ctrl @ 10000nM
T24 construct: purchased DiscoverX KINOMEscan

[27] = biological target: T25, GAK (Homo sapiens, UniProt O14976); assay: KINOMEscan; assay type: binding; details: read-out: %Ctrl @ 10000nM
T25 construct: purchased DiscoverX KINOMEscan

[28] = biological target: T26, MLK2 (Homo sapiens, UniProt Q02779); assay: KINOMEscan; assay type: binding; details: read-out: %Ctrl @ 10000nM
T26 construct: purchased DiscoverX KINOMEscan

[29] = biological target: T27, ABL1(Y253F)-phosphorylated (Homo sapiens, UniProt P00519, Y253F); assay: KINOMEscan; assay type: binding; details: read-out: %Ctrl @ 10000nM
T27 construct: purchased DiscoverX KINOMEscan

[30] = biological target: T28, AURKB (Homo sapiens, UniProt Q96GD4); assay: KINOMEscan; assay type: binding; details: read-out: %Ctrl @ 10000nM
T28 construct: purchased DiscoverX KINOMEscan

[31] = biological target: T29, YANK3 (Homo sapiens, UniProt Q86UX6); assay: KINOMEscan; assay type: binding; details: read-out: %Ctrl @ 10000nM
T29 construct: purchased DiscoverX scanMAX; host or cells: E. coli BL21-derived host (T7 phage) or HEK-293

[32] = biological target: T30, ICK (Homo sapiens, UniProt Q9UPZ9); assay: KINOMEscan; assay type: binding; details: read-out: %Ctrl @ 10000nM
T30 construct: purchased DiscoverX KINOMEscan

[33] = biological target: T31, NEK9 (Homo sapiens, UniProt Q8TD19); assay: KINOMEscan; assay type: binding; details: read-out: %Ctrl @ 10000nM
T31 construct: purchased DiscoverX KINOMEscan

T1 sequence (Q9NSY1 whole entry): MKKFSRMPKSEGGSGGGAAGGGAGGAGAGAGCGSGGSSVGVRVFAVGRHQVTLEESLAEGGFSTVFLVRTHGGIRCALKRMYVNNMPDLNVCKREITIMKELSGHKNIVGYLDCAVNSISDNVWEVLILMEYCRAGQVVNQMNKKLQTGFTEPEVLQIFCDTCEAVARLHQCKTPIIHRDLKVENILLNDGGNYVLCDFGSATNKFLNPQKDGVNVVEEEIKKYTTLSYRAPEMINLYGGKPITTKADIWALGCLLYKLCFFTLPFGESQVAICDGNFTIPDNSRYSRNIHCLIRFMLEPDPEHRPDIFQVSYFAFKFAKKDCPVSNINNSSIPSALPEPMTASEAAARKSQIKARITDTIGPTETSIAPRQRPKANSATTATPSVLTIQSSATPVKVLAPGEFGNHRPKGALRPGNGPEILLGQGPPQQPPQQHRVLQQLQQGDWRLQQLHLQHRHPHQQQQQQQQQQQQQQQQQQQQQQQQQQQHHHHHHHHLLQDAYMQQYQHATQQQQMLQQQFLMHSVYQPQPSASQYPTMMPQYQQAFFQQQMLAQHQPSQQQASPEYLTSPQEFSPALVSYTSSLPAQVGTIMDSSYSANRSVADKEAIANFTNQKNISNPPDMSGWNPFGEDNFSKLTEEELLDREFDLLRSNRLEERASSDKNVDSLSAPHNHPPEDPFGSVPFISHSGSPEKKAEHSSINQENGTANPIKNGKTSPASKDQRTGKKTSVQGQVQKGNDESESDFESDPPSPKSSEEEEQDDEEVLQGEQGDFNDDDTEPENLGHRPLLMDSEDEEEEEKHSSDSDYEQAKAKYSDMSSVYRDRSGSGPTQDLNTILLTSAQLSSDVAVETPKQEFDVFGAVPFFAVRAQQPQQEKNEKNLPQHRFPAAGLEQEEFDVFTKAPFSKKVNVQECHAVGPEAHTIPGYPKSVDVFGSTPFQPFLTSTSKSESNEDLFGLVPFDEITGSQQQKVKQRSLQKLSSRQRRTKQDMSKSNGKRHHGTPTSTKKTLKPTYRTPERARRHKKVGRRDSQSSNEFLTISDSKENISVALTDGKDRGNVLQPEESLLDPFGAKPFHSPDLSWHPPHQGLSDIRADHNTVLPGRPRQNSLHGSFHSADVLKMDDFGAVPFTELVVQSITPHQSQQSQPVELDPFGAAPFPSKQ

With CC(C)c1ccc(CC(=O)N2CCN(c3ccc(C#N)nn3)CC2)cc1 [PZ-2891, 6-(4-(2-(4-isopropylphenyl)acetyl)piperazin-1-yl)pyridazine-3-carbonitrile] the remaining binding at 10 µM [1] was 100%, the remaining binding at 10 µM [2] was 42% and the remaining binding at 10 µM [3] was 76%. The remaining binding at 10 µM [4] was 70%, the remaining binding at 10 µM [5] was 89% and the remaining binding at 10 µM [6] was 97%. It also gave a remaining binding at 10 µM [7] of 74%, a remaining binding at 10 µM [8] of 78% and a remaining binding at 10 µM [9] of 96%. The remaining binding at 10 µM [10] was 89%, the half-life [11] was over 50 h and the remaining binding at 10 µM [12] was 88%. For the same compound, the remaining binding at 10 µM [13] was 91%, the remaining binding at 10 µM [14] was 63% and the remaining binding at 10 µM [15] was 88%. For the same compound, the remaining binding at 10 µM [16] was 58%, the remaining binding at 10 µM [17] was 92% and the remaining binding at 10 µM [18] was 65%. For the same compound, the remaining binding at 10 µM [19] was 89%, the off-target pharmacological interactions [20] was “absence of off-target pharmacological interactions” and the remaining binding at 10 µM [21] was 100%. The remaining binding at 10 µM [22] was 87%, the remaining binding at 10 µM [23] was 86% and the remaining binding at 10 µM [24] was 91%. For the same compound, the remaining binding at 10 µM [25] was 87%, the remaining binding at 10 µM [26] was 82% and the remaining binding at 10 µM [27] was 93%. For the same compound, the remaining binding at 10 µM [28] was 72%, the remaining binding at 10 µM [29] was 82% and the remaining binding at 10 µM [30] was 89%. For the same compound, the remaining binding at 10 µM [31] was 84%, the remaining binding at 10 µM [32] was 81% and the remaining binding at 10 µM [33] was 96%.
